Experimental data reported in patent US9474790B2, “Stable, protracted GLP-1/glucagon receptor co-agonists for medical use” (Novo Nordisk A/S, priority 2013, dated 2016).
pIC50: −log10 of the molar value. Numbered stars: 1 amine (or outer) side, 2 acyl side, 3 side chain; on linkers, the order of the positions; unused ones are H or OH. Square brackets hold non-standard residues; d marks the D form. Side chains are listed from the residue outwards. Peptide text beside a SMILES is read from it. * marks the point of attachment. C18 diacid = O=C(O)CCCCCCCCCCCCCCCCC(=O)*; γGlu = O=C(O)[C@H](CCC(=O)[*:2])N[*:1]; AEEA = NCCOCCOCC(=O)O; Aib = CC(C)(N)C(=O)O

Tests used:
human glucagon receptor = target: T1, human glucagon receptor (Homo sapiens, UniProt P47871); test: Glucagon receptor binding, 125I-glucagon displacement SPA on isolated membranes; conditions: displacement of 125I-glucagon from membranes; read-out: IC50 GlucR
T1 construct: expressed in transfected cells; host or cells: BHK cells (parent BHK570, CRE luciferase clone BHK/KZ10-20-48), clone pLJ6'-4-25
T1 sequence (P47871 26-477): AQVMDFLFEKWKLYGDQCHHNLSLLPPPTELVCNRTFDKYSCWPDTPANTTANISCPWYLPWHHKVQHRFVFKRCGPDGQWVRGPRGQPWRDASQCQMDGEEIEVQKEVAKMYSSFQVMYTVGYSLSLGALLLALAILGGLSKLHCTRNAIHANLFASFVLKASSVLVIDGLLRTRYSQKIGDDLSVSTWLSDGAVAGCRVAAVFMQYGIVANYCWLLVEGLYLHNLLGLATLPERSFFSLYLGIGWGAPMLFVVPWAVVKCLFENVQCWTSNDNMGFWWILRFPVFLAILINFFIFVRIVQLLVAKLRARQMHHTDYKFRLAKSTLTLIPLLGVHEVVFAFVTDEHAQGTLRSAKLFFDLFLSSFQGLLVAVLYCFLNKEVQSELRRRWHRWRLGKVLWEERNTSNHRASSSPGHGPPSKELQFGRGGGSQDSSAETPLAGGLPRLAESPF
Procedure, shortened: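 Displacement IC50 derived by non-linear regression of SPA counts after 2 h, 25 °C incubation of compound with [125I]-glucagon (480 pM solution, 25 μl) and membranes of hGCGR-transfected BHK cells. Buffer was HEPES pH 7.4 with ovalbumin; serum albumin was held at 0.001% max or 0.2% final.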

[1] = Chemical stability assessment by RP-UPLC; assay type: physicochemical; conditions: 333 μM, 8 mM phosphate buffer pH 7.3, 37° C. vs 5° C.
Procedure, shortened: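 Purity loss = (purity after 14 days at 5° C. minus that at 37° C.) relative to the 5° C. value, purity being main-peak area % by RP-UPLC with UV at 215 nm. Samples were 333 μM in 8 mM phosphate, pH 7.3; gradient adjusted for outlying retention times.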

pIC50 (human glucagon receptor)	Purity loss; 14 days at 37° C. [1] [%]	Compound
7.42	3	CC(C)C[C@H](NC(=O)[C@H](Cc1ccc(O)cc1)NC(=O)[C@H](CCCCN)NC(=O)[C@H](CO)NC(=O)[C@H](CC(C)C)NC(=O)[C@H](CC(=O)O)NC(=O)[C@H](CO)NC(=O)[C@@H](NC(=O)[C@H](Cc1ccccc1)NC(=O)[C@@H](NC(=O)CNC(=O)[C@H](CCC(N)=O)NC(=O)C(C)(C)NC(=O)[C@@H](N)Cc1c[nH]cn1)[C@@H](C)O)[C@@H](C)O)C(=O)N[C@@H](CCC(=O)O)C(=O)N[C@@H](CO)C(=O)N[C@@H](CCCNC(=N)N)C(=O)N[C@@H](CCCNC(=N)N)C(=O)N[C@@H](C)C(=O)N[C@@H](CCCNC(=N)N)C(=O)N[C@@H](CCC(=O)O)C(=O)N[C@@H](Cc1ccccc1)C(=O)N[C@H](C(=O)N[C@@H](CCC(N)=O)C(=O)N[C@@H](Cc1c[nH]c2ccccc12)C(=O)N[C@@H](CC(C)C)C(=O)N[C@@H](CC(C)C)C(=O)N[C@@H](CCCCNC(=O)COCCOCCNC(=O)COCCOCCNC(=O)CC[C@H](NC(=O)CC[C@H](NC(=O)CC[C@H](NC(=O)CCCCCCCCCCCCCCCCC(=O)O)C(=O)O)C(=O)O)C(=O)O)C(=O)N[C@H](C(N)=O)[C@@H](C)O)C(C)C [Example 42, N^ε28-[2-[2-[2-[[2-[2-[2-[[(4S)-4-carboxy-4-[[(4S)-4-carboxy-4-[[(4S)-4-carboxy-4-(17-carboxyheptadecanoylamino)butanoyl]amino]butanoyl]amino]butanoyl]amino]ethoxy]ethoxy]acetyl]amino]ethoxy]ethoxy]acetyl]-[Aib2,Leu10,Glu15,Arg20,Glu21,Leu27,Lys28]-Glucagon amide] (H-H[Aib]QGTFTSDLSKYLESRRAREFVQWLLK([AEEA-AEEA-γGlu-γGlu-γGlu-C18 diacid])T-NH2; N-terminus assumed)
8.25	3	CC(C)C[C@H](NC(=O)[C@H](Cc1ccc(O)cc1)NC(=O)[C@H](CCCCN)NC(=O)[C@H](CO)NC(=O)[C@H](CC(C)C)NC(=O)[C@H](CC(=O)O)NC(=O)[C@H](CO)NC(=O)[C@@H](NC(=O)[C@H](Cc1ccccc1)NC(=O)[C@@H](NC(=O)CNC(=O)[C@H](CCC(N)=O)NC(=O)C(C)(C)NC(=O)[C@@H](N)Cc1c[nH]cn1)[C@@H](C)O)[C@@H](C)O)C(=O)N[C@@H](CC(=O)O)C(=O)N[C@@H](C)C(=O)N[C@@H](CCCNC(=N)N)C(=O)N[C@@H](CCCNC(=N)N)C(=O)N[C@@H](C)C(=O)N[C@@H](CCCNC(=N)N)C(=O)N[C@@H](CCC(=O)O)C(=O)N[C@@H](Cc1ccccc1)C(=O)N[C@H](C(=O)N[C@@H](CCC(N)=O)C(=O)N[C@@H](Cc1c[nH]c2ccccc12)C(=O)N[C@@H](CC(C)C)C(=O)N[C@@H](CC(C)C)C(=O)N[C@@H](CC(N)=O)C(=O)N[C@@H](CCCCNC(=O)CC[C@H](NC(=O)CC[C@H](NC(=O)COCCOCCNC(=O)CC[C@H](NC(=O)CCCCCCCCCCCCCCCCC(=O)O)C(=O)O)C(=O)O)C(=O)O)C(N)=O)C(C)C [Example 39, N^ε29-[(4S)-4-carboxy-4-[[(4S)-4-carboxy-4-[[2-[2-[2-[[(4S)-4-carboxy-4-(17-carboxyheptadecanoylamino)butanoyl]amino]ethoxy]ethoxy]acetyl]amino]butanoyl]amino]butanoyl]-[Aib2,Leu10,Ala16,Arg20,Glu21,Leu27,Lys29]-Glucagon amide] (H-H[Aib]QGTFTSDLSKYLDARRAREFVQWLLNK([γGlu-γGlu-AEEA-γGlu-C18 diacid])-NH2; N-terminus assumed)

Compound	pIC50 (human glucagon receptor)	Purity loss; 14 days at 37° C. [1] [%]
CC(C)C[C@H](NC(=O)[C@H](CC(=O)O)NC(=O)[C@H](CC(C)C)NC(=O)[C@H](Cc1ccc(O)cc1)NC(=O)[C@H](CCCCN)NC(=O)[C@H](CO)NC(=O)[C@H](CC(C)C)NC(=O)[C@H](CC(=O)O)NC(=O)[C@H](CO)NC(=O)[C@@H](NC(=O)[C@H](Cc1ccccc1)NC(=O)[C@@H](NC(=O)CNC(=O)[C@H](CCC(N)=O)NC(=O)C(C)(C)NC(=O)[C@@H](N)Cc1c[nH]cn1)[C@@H](C)O)[C@@H](C)O)C(=O)N[C@@H](CCCCN)C(=O)N[C@@H](CCCNC(=N)N)C(=O)N[C@@H](C)C(=O)N[C@@H](CCCNC(=N)N)C(=O)N[C@@H](CCC(=O)O)C(=O)N[C@@H](Cc1ccccc1)C(=O)N[C@H](C(=O)N[C@@H](CCC(N)=O)C(=O)N[C@@H](Cc1c[nH]c2ccccc12)C(=O)N[C@@H](CC(C)C)C(=O)N[C@@H](CC(C)C)C(=O)N[C@@H](CCCCNC(=O)CC[C@H](NC(=O)CC[C@H](NC(=O)COCCOCCNC(=O)COCCOCCNC(=O)CC[C@H](NC(=O)CCCCCCCCCCCCCCCCC(=O)O)C(=O)O)C(=O)O)C(=O)O)C(=O)N[C@H](C(N)=O)[C@@H](C)O)C(C)C [Example 26, N^ε28-[(4S)-4-carboxy-4-[[(4S)-4-carboxy-4-[[2-[2-[2-[[2-[2-[2-[[(4S)-4-carboxy-4-(17-carboxyheptadecanoylamino)butanoyl]amino]ethoxy]ethoxy]-acetyl]amino]ethoxy]ethoxy]acetyl]amino]butanoyl]amino]butanoyl]-[Aib2,Leu10,Leu16,Lys17,Arg20,Glu21, Leu27,Lys28]-Glucagon amide] (H-H[Aib]QGTFTSDLSKYLDLKRAREFVQWLLK([γGlu-γGlu-AEEA-AEEA-γGlu-C18 diacid])T-NH2)	8.40	2
